Values quoted from earlier work in PMC6256190 (Biomedical Reports, 2018).

Settings: dry extract of ginger 100 mg to 2 g, 27 healthy American participants; glucuronides were detected

CCCCC[C@H](O)CC(=O)CCc1ccc(O)c(OC)c1 [6-gingerol]
Free compound in plasma: no free
